“Also recorded” adds a separate entry of the source.
Key:
[1] = system: ischemia/reperfusion injury of the optic nerve induced by the subtenon injection of endothelin-1 (ET-1) in rabbits; assay: Electroretinogram (ERG) recording, ET-1 ischemia/reperfusion model (Example 1); assay type: in vivo, New Zealand white (NZW) rabbits
Experimental: (§1) These experiments were performed to determine the effects of [(2S)-1-(4-{[(3-chloro-4-methoxyphenyl)methyl]amino}-5-{[(pyrimidin-2yl)methyl]carbamoyl}pyrimidin-2-yl)pyrrolidin-2-yl]methyl 6-(nitrooxy)hexanoate (Compound (I)) on ocular vascular reactivity and retinal function after ocular topical dosing in a model of ischemia/reperfusion injury of the optic nerve induced by the subtenon injection of endothelin-1 (ET-1) in rabbits.
(§2) Adult male New Zealand white (NZW) rabbits weighting 1.5-2.0 kg were used. All animals received a single 30 microL/eye topical dose of Compound (I) (1% w/w) or vehicle (Kolliphor® EL 5.0% w/w, Myrj™ S40 3.0% w/w, Kollisolv® PEG400 2.8% w/w, H3BO3 0.19% w/w, Na2HPO4·7H2O 0.51% w/w, EDTA 0.10% w/w, BAK 0.01% w/w, HCl 0.5N q.s. pH 6.6, purified water q.s. 100 g) twice daily for 4 consecutive weeks starting 2 weeks after Endothelin-1 (ET-1) first dosing.
(§3) Ischemia/reperfusion injury was induced in each animal by subtenon injection (twice/week for 6 weeks) of 200 microL of 250 nM ET-1 dissolved in water using a lacrimal cannula under anaesthesia produced by ketamine and xylazine injected intramuscularly.
Electroretinogram (ERGs) recording took place under topical anaesthesia. The eyes were also dilated by topical application of tropicamide 1% and, when needed, adapted to darkness for at least 2 hours prior to ERGs recording. ERGs recording were performed with standard contact lens corneal electrodes. Specifically, the dark-adapted 0.01 ERG (mostly rod response), dark-adapted 3.0 ERG (combined rod/cone response) and, light-adapted 3.0 (mostly cone response) were recorded.
(§4) Measurements were taken prior to ET-1 first dose (baseline, time 0), then at the end of week 2 (prior to vehicle- or Compound (I) first day-first dose) and at the end of week 6.

[2] = system: ischemia/reperfusion injury of the optic nerve induced by the subtenon injection of endothelin-1 (ET-1) in rabbits; assay: Ophthalmic artery resistive index (OA-RI) by Echo Color Doppler, ET-1 ischemia/reperfusion model (Example 1); assay type: in vivo, New Zealand white (NZW) rabbits; details: for Ophthalmic artery resistive index (OA-RI), Baseline: prior to ET-1 dosing (time 0), before test item; for OA-RI, ET-1 (4-weeks) + Test items (2 weeks daily bid): week 4; for OA-RI, ET-1 (4-weeks) + Test items (2 weeks daily bid) / OA-RI, ET-1 (6 weeks) + Test items (4 weeks daily bid): 1% w/w, 30 microL/eye topical twice daily; for OA-RI, ET-1 (6 weeks) + Test items (4 weeks daily bid): week 6
Experimental: as §1, §2, §3
Ophthalmic Artery Resistive Index (OA-RI) measurements were taken using an Echo Color Doppler prior to ET-1 treatment (baseline, time 0), and weekly thereafter till the end of the study. Pourcelot resistive index for ophthalmic artery (OA-RI) was calculated using the following formula: (OA-PSV−OA-EDV)/OA-PSV where OA-PSV and OA-EDV refer to Ophthalmic Artery Peak Systolic Velocity and Ophthalmic Artery End Diastolic Velocity, respectively.
as §4

[3] = system: endothelin-1 (ET-1)-induced ischemia/reperfusion injury of optic nerve head and retina; assay: OA-RI by Echo-Color-Doppler, Compound (I) vs des-nitro Compound (Ia) (Example 2); assay type: in vivo, rabbits; details: for OA-RI, ET-1 + treatment Week 3 / OA-RI, ET-1 + treatment Week 4 / OA-RI, ET-1 + treatment Week 5 / OA-RI, ET-1 + treatment Week 6: Cpd (I) 1.0% / Cpd (Ia) 0.93% (equimolar), topical twice daily from week 3; for OA-RI, ET-1 (1st dose) Week 2: ET-1 only, before treatment; for Effect on OA-RI / ocular perfusion (in words): ET-1 rabbit model, equimolar doses, weeks 3-6; for OA-RI, Baseline Week 0: before ET-1 and treatment
Experimental: This study evaluated the ocular hemodynamic effects of repeated topical ocular dosing of Compound (I) in comparison to its des-nitro derivative Compound (Ia) administered at equimolar doses in rabbits with endothelin-1 (ET-1)-induced ischemia/reperfusion injury of optic nerve head and retina. Method: ET-1 was injected next to the optic nerve head twice/week for 6 weeks. Animals received Compound (I) (1% twice daily, 6 days/week), Compound (Ia) (0.93%, equimolar to 1% Compound (I)) or vehicle from week 3 until the end of ET-1 treatment. Functional endpoint was ophthalmic artery resistive index (OA-RI) determined using an Echo-Color-Doppler.

[4] = system: blood flow nearby the optic nerve head and choroid; details: systemic dosing; British J Ophthalmology 83 (1999); cited from earlier work

Row | Structure (SMILES) | Effect on retinal function / ERG (in words) ([1]; ET-1 rabbit model, 4 weeks topical dosing) | ERG Amplitude, ET-1 (6 weeks) + Test items (4 weeks daily bid) ([1]; Light adapted 3.0 (Rod/cone response), 1% w/w, 30 microL/eye topical bid, ± S.D.) | ERG Amplitude, ET-1 (2 weeks) ([1]; Light adapted 3.0 (Rod/cone response), before first dose of test item, ± S.D.) | ERG Amplitude, Baseline ([1]; Light adapted 3.0 (Rod/cone response), prior to ET-1, ± S.D.) | Effect on OA-RI (in words) ([2]; ET-1 rabbit model, topical dosing) | OA-RI, ET-1 (2 weeks) ([2]; after 2 weeks ET-1 twice weekly, before first dose of test item, mean±SD) | Ophthalmic artery resistive index (OA-RI), Baseline ([2]; mean±SD) | Ophthalmic artery resistive index (OA-RI), Baseline ([2]; mean±SD, listed as Cpd (I)) | OA-RI, ET-1 (4-weeks) + Test items (2 weeks daily bid) ([2]; mean±SD) | OA-RI, ET-1 (4-weeks) + Test items (2 weeks daily bid) ([2]; mean±SD, listed as Cpd (I)) | OA-RI, ET-1 (6 weeks) + Test items (4 weeks daily bid) ([2]; mean±SD) | OA-RI, ET-1 (6 weeks) + Test items (4 weeks daily bid) ([2]; mean±SD, listed as Cpd (I)) | OA-RI, ET-1 + treatment Week 3 [3] | OA-RI, ET-1 + treatment Week 4 [3] | OA-RI, ET-1 + treatment Week 5 [3] | OA-RI, ET-1 + treatment Week 6 [3] | OA-RI, ET-1 (1st dose) Week 2 [3] | Effect on OA-RI / ocular perfusion (in words) [3] | OA-RI, Baseline Week 0 [3] | Effect on ocular blood flow (in words) [4]
1 | COc1ccc(CNc2nc(N3CCC[C@H]3COC(=O)CCCCCO[N+](=O)[O-])ncc2C(=O)NCc2ncccn2)cc1Cl [Compound (I), [(2S)-1-(4-{[(3-Chloro-4-methoxyphenyl)methyl]amino}-5-{[(pyrimidin-2-yl)methyl]carbamoyl}pyrimidin-2-yl)pyrrolidin-2-yl]methyl 6-(nitrooxy)hexanoate] | increased photoreceptor activity; also recorded: less impairment in the ERG wave amplitude than those treated with vehicle | 131.6 ± 46.4 μV | 100.5 ± 33.3 μV | 115.9 ± 30.0 μV | reduced ophthalmic artery resistive index (OA-RI) | 0.48 ± 0.06 | 0.40±0.08 | 0.40 ± 0.08 | 0.43±0.09 | 0.43 ± 0.09 | 0.43±0.04 | 0.43 ± 0.04 | 0.41 ± 0.01 | 0.37 ± 0.03 | 0.37 ± 0.03 | 0.39 ± 0.03 | 0.46 ± 0.02 | restored baseline OA-RI by week 6; also recorded: ameliorates ocular perfusion | 0.34 ± 0.02 | –
2 | COc1ccc(CNc2nc(N3CCC[C@H]3COC(=O)CCCCCO)ncc2C(=O)NCc2ncccn2)cc1Cl [Compound (Ia), [(2S)-1-(4-{[(3-Chloro-4-methoxyphenyl)methyl]amino}-5-{[(pyrimidin-2-yl)methyl]carbamoyl}pyrimidin-2-yl)pyrrolidin-2-yl]methyl 6-hydroxyhexanoate, reference compound] | – | – | – | – | – | – | – | – | – | – | – | – | 0.49 ± 0.00 | 0.47 ± 0.01 | 0.51+0.02 | 0.48 ± 0.07 | 0.51 ± 0.01 | not effective; also recorded: only resulted in minor activity | 0.34 ± 0.02 | –
3 | O=[N+]([O-])O[C@@H]1CO[C@H]2[C@@H]1OC[C@@H]2O [ISMN, isosorbide mononitrate] | – | – | – | – | – | – | – | – | – | – | – | – | – | – | – | – | – | – | – | increases blood flow nearby optic nerve head without changes to the choroidal compartment

Reference: patent US20250170131A1, “METHOD FOR THE TREATMENT OF ANTERIOR ISCHEMIC OPTIC NEUROPATHY” (Nicox SA, priority 2022, published 2025)
